Source: patent US11344498B2, “Compositions and methods for on-demand high-efficiency triggerable anesthesia” (priority 2015, dated 2022)
Where two headings read alike, the source gives them in different places.

What was measured:
[1] = Procedure: Animals were anesthetized with isoflurane-oxygen and injected with 50 μL of 10 mg/mL sulforhodamine B PBS solution at the sciatic nerve co-injected with or without 50 μL of 50 μg/mL DMED. […] The supernatant was collected and methanol was added at a 1:1 vol ratio. […] The concentration of sulforhodamine B was analyzed by fluorescence (excitation/emission: 560/580 nm).
Liposomal pharmacokinetics studies were performed by co-injecting 200 μL of Lipo-PS-Srho with 200 μL of Lipo or Lipo-DMED at the sciatic nerve. At predetermined time points (30 min, 3 h, 7 h and 10 h), blood was harvested by tail-bleeding.

sciatic nerve = assay: Motor nerve block, weight-bearing test (TTX, ultrasound, microbubbles); details: rat, in vivo
[2] = test system: sciatic nerves and adjacent tissues; details: rat, in vivo

For `Cc1cccc([C@H](C)c2cnc[nH]2)c1C` [DMED, (S)-4-[1-(2,3-Dimethylphenyl)ethyl]-3H-imidazole], the “decrease of peak Srho plasma concentration” value ([1]; rat, in vivo) was 27.5% and the “time to peak Srho plasma level” value ([1]; rat, in vivo) was 60 min.
For `CCN(CC)c1ccc2c(-c3ccc(S(=O)(=O)O)cc3S(=O)(=O)[O-])c3ccc(=[N+](CC)CC)cc-3oc2c1` [Srho, sulforhodamine B], the “time to peak Srho plasma level” value ([1]; free Srho without DMED) was 30 min.
In the case of `N=C1N[C@@H](O)[C@H]2[C@@H]3OC4(O)OC(C(O)[C@@]2(N1)[C@@H]4O)[C@]3(O)CO` (stereo partly drawn) [TTX, Tetrodotoxin], the “median duration of motor nerve block” value (sciatic nerve) is reported as 0 min, the inflammation score [2] is reported as 1 and the myotoxicity score [2] is reported as 0.
